Source: PubChem BioAssay (NCI)
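Values below derive from 48-hour exposures of cells grown in 96-well plates, with endpoints linearly interpolated between the two concentrations bracketing the appropriate inhibition level. TGI marks complete inhibition of growth.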

How the values were obtained:
Assay in all cases: NCI anticancer screen, dose series, 48 h
XF 498 CNS = tested on: XF 498 CNS
DMS 273 small cell lung = tested on: DMS 273 small cell lung
DLD-1 colon = tested on: DLD-1 colon
RXF-631 renal = tested on: RXF-631 renal
HOP-18 NSCLC = tested on: HOP-18 NSCLC
M19-MEL melanoma = tested on: M19-MEL melanoma
LXFL 529 NSCLC = tested on: LXFL 529 NSCLC

Measured: TGI

c1ccc2c(NCCCCCCNc3cccc4ccccc34)cccc2c1
> 100 µM: all assays above

Cn1cnc([N+](=O)[O-])c1Sc1nccc(=O)[nH]1
> 100 µM: all assays above

CCOC(=O)C(C(O)c1ccc([N+](=O)[O-])cc1)P(=O)(OCC)OCC (stereo unspecified)
> 100 µM: all assays above
